Laboratory results taken from patent publication US10988523B2, “Modified lipidated Relaxin B chain peptides and their therapeutic use” (Sanofi, priority 2018, dated 2021).
Where a SMILES comes first, the peptide text is derived from it. [ ]: non-standard residue; d: D form. The star is where a group is joined. X4 = CCCCCCCCCCCCCCCC(=O)N[C@@H](CCC(=O)N[C@@H](CCC(=O)NCCCC[C@H](NC(=O)CC[C@H](NC(=O)CC[C@H](NC(=O)CCC(=O)NCCCOCCOCCOCCCNC(=O)CCC(=O)NCCCOCCOCCOCCCNC(=O)CCC(=O)NCCCOCCOCCOCCCN*)C(=O)O)C(=O)O)C(N)=O)C(=O)O)C(=O)O; X6 = CCCCCCCCCCCCCCC(=O)N[C@@H](CCC(=O)N[C@@H](CCC(=O)NCCCC[C@H](NC(=O)CC[C@H](NC(=O)CC[C@H](NC(=O)CCC(=O)NCCCOCCOCCOCCCNC(=O)CCC(=O)NCCCOCCOCCOCCCNC(=O)CCC(=O)NCCCOCCOCCOCCCN*)C(=O)O)C(=O)O)C(N)=O)C(=O)O)C(=O)O; X3 = CCCCCCCCCCCCCCCC(=O)N[C@@H](CCC(=O)N[C@@H](CCC(=O)N[C@@H](CCC(=O)N[C@@H](CCC(=O)NCCCC[C@H](NC(=O)CCC(=O)NCCCOCCOCCOCCCNC(=O)CCC(=O)NCCCOCCOCCOCCCN*)C(N)=O)C(=O)O)C(=O)O)C(=O)O)C(=O)O; αMeK = C[C@](N)(CCCCN)C(=O)O; Nle = CCCC[C@H](N)C(=O)O; Aib = CC(C)(N)C(=O)O

Legend:
[1] = Pharmacokinetic (PK) determination after i.v. or s.c. administration to rats; format: in vivo, Sprague Dawley rats; conditions: Sprague Dawley, Rat PK; for C0 / half-life: iv, 1 mg/kg i.v.; for C0: extrapolated plasma concentration at t=0, read-out: C0; for half-life / Cmax / Tmax / bioavailability: plasma; for half-life: read-out: T½ (converted); for Cmax / Tmax: sc, 3 mg/kg s.c.; for bioavailability: subcutaneous, 3 mg/kg s.c. vs 1 mg/kg i.v., dose-corrected AUC ratio
Summary of the method: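 Sprague Dawley rats received peptide in PBS at 1 mg/kg i.v. or 3 mg/kg s.c., dose corrected for salts, solvent and purity. Plasma analysed by LC/MS after protein precipitation; non-compartmental PK, BLQ values set to zero, F% as dose-corrected s.c./i.v. AUC ratio.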

RXFP1 = molecular target: T1, RXFP1 (Homo sapiens, UniProt Q9HBX9); experiment: OVCAR5 cAMP assay (HTRF), RXFP1 agonist activity; format: cell-based; conditions: for EC50: OVCAR5 cells, cAMP HTRF, read-out: EC50 (nM), OVCAR 5 cells (cAMP); for Emax: OVCAR-5, maximal cAMP relative to H2-relaxin maximum (100%), read-out: EMax, OVCAR 5 cells (cAMP)
T1 construct: OVCAR5 cells expressing endogenous RXFP1; endogenous in cells; host or cells: OVCAR5 cells
T1 sequence (Q9HBX9 1-757): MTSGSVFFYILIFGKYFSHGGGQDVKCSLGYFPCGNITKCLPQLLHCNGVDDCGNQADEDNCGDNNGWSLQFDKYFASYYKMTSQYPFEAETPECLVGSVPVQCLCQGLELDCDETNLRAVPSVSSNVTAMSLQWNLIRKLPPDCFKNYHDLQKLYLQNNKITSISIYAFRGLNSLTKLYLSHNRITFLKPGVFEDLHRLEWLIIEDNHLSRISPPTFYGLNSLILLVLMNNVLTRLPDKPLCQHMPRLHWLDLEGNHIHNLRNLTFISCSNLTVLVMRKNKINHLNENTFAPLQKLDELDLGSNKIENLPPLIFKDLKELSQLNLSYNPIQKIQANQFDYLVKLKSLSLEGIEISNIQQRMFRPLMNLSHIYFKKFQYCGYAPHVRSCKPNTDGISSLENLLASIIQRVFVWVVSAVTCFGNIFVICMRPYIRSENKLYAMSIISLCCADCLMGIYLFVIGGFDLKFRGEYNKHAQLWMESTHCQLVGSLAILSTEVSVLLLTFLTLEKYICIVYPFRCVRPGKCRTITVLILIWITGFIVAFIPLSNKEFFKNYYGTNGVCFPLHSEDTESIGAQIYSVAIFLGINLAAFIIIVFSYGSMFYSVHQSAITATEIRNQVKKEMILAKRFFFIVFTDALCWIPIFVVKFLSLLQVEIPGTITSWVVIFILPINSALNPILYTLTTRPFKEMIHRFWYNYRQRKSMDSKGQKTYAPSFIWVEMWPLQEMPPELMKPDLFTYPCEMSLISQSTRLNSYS
Summary of the method: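 OVCAR5 cells (endogenous RXFP1) pretreated 40 min at 37° C with 1 mM IBMX, then exposed to peptides in serum-free medium for 30 min at 37° C. Lysate cAMP read by HTRF; EC50 from variable-slope sigmoidal fit; Emax as % of H2-relaxin maximal cAMP in same run.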

| C0 [1] | half-life [1] | Cmax [1] | Tmax [1] | bioavailability [1] | EC50 (RXFP1) | Emax (RXFP1) | SMILES |
| --- | --- | --- | --- | --- | --- | --- | --- |
| 3200 nM | 5 h | 2300 nM | 5 h | 64% | 0.12 nM | 91% | CCCCCCCCCCCCCCCC(=O)N[C@@H](CCC(=O)N[C@@H](CCC(=O)N[C@@H](CCC(=O)N[C@@H](CCC(=O)NCCCC[C@H](NC(=O)CCC(=O)NCCCOCCOCCOCCCNC(=O)CCC(=O)NCCCOCCOCCOCCCNC(=O)[C@H](CCCCNC(C)=O)NC(=O)[C@H](C)NC(=O)[C@H](CCCNC(=N)N)NC(=O)[C@](C)(CCCCN)NC(=O)[C@H](CO)NC(=O)[C@H](Cc1ccccc1)NC(=O)[C@@H](NC(=O)[C@H](CO)NC(=O)[C@H](CCCC)NC(=O)CNC(=O)[C@H](CCC(=O)O)NC(=O)C(C)(C)NC(=O)C(C)(C)NC(=O)[C@@H](NC(=O)[C@H](CCCCNC(C)=O)NC(=O)[C@H](C)NC(=O)[C@H](CCCNC(=N)N)NC(=O)[C@@H](NC(=O)[C@H](CCCCN)NC(=O)[C@H](CCC(=O)O)NC(=O)[C@H](CCCNC(=N)N)NC(=O)CNC(=O)[C@H](CCC(=O)O)NC(=O)[C@H](CC(C)C)NC(C)=O)C(C)C)[C@@H](C)CC)[C@@H](C)O)C(N)=O)C(=O)O)C(=O)O)C(=O)O)C(=O)O [compound 162] (Ac-LEGREKVRAK(Ac)I[Aib][Aib]EG[Nle]STFS[αMeK]RAK(Ac)-X3) |
| 3040 nM | 5.8 h | 1890 nM | 6 h | 69% | 0.01 nM | 89% | CCCCCCCCCCCCCCCC(=O)N[C@@H](CCC(=O)N[C@@H](CCC(=O)NCCCC[C@H](NC(=O)CC[C@H](NC(=O)CC[C@H](NC(=O)CCC(=O)NCCCOCCOCCOCCCNC(=O)CCC(=O)NCCCOCCOCCOCCCNC(=O)CCC(=O)NCCCOCCOCCOCCCNC(=O)[C@H](CCCCNC(C)=O)NC(=O)[C@H](C)NC(=O)[C@H](CCCNC(=N)N)NC(=O)[C@](C)(CCCCN)NC(=O)[C@H](CO)NC(=O)[C@H](Cc1ccccc1)NC(=O)[C@@H](NC(=O)[C@H](CO)NC(=O)[C@H](CCCC)NC(=O)CNC(=O)[C@H](CCC(=O)O)NC(=O)C(C)(C)NC(=O)C(C)(C)NC(=O)[C@@H](NC(=O)[C@H](CCCCNC(C)=O)NC(=O)[C@H](C)NC(=O)[C@H](CCCNC(=N)N)NC(=O)[C@@H](NC(=O)[C@H](CCCCN)NC(=O)[C@H](CCC(=O)O)NC(=O)[C@H](CCCNC(=N)N)NC(=O)CNC(=O)[C@H](CCC(=O)O)NC(=O)[C@H](CC(C)C)NC(C)=O)C(C)C)[C@@H](C)CC)[C@@H](C)O)C(=O)O)C(=O)O)C(N)=O)C(=O)O)C(=O)O [compound 169] (Ac-LEGREKVRAK(Ac)I[Aib][Aib]EG[Nle]STFS[αMeK]RAK(Ac)-X4) |
| 4700 nM | 7.3 h | 2800 nM | 7 h | 71% |  | 100% | CCCCCCCCCCCCCCC(=O)N[C@@H](CCC(=O)N[C@@H](CCC(=O)NCCCC[C@H](NC(=O)CC[C@H](NC(=O)CC[C@H](NC(=O)CCC(=O)NCCCOCCOCCOCCCNC(=O)CCC(=O)NCCCOCCOCCOCCCNC(=O)CCC(=O)NCCCOCCOCCOCCCNC(=O)[C@H](CCCCNC(C)=O)NC(=O)[C@H](C)NC(=O)[C@H](CCCNC(=N)N)NC(=O)[C@](C)(CCCCN)NC(=O)[C@H](CO)NC(=O)[C@H](Cc1ccccc1)NC(=O)[C@@H](NC(=O)[C@H](CO)NC(=O)[C@H](CCC(N)=O)NC(=O)CNC(=O)[C@H](CCC(=O)O)NC(=O)C(C)(C)NC(=O)C(C)(C)NC(=O)[C@@H](NC(=O)[C@H](CCCCNC(C)=O)NC(=O)[C@H](C)NC(=O)[C@H](CCCNC(=N)N)NC(=O)[C@@H](NC(=O)[C@H](CCCCN)NC(=O)[C@H](CCC(=O)O)NC(=O)[C@H](CCCNC(=N)N)NC(=O)CNC(=O)[C@H](CCC(=O)O)NC(=O)[C@H](CC(C)C)NC(C)=O)C(C)C)[C@@H](C)CC)[C@@H](C)O)C(=O)O)C(=O)O)C(N)=O)C(=O)O)C(=O)O [compound 184] (Ac-LEGREKVRAK(Ac)I[Aib][Aib]EGQSTFS[αMeK]RAK(Ac)-X6) |
